Columns and labels:
Velvetleaf (VELE) = assay: Greenhouse test Procedure VII (same examples); assay type: in vivo, Abutilon theophrasti
From the text: This procedure describes interaction among herbicide, biocide and antidote when the biocide and the antidote is applied to a soil furrow containing crop seed before emergence of the crop and the herbicide is applied after emergence of the crop and weeds. The soil and planting depth was described in Procedure IV. The containers for comparison, the biocide and antidote applications to soil furrows were described in Procedure VI. In this procedure, the seed beds of the first, second, third and fourth containers are covered by soil layers not treated with herbicide. The containers were then placed on a bench in a greenhouse and subirrigated as required for the duration of the test. The herbicide, dispersed or dissolved in water containing 0.25% v/v nonionic surfactant (X-77) was applied by a track sprayer (187 L/ha) to the emerged plants of the second, third and fourth containers about five days after planting. All treatments were run in duplicate. Plant response was observed according to Procedure IV. Variations in this procedure will be noted in the examples.
In this example, tests were conducted according to Procedure VII for the POE application of the herbicides following in-furrow application of COUNTER® 15G insecticide (BIOCIDE No. 1) and the antidote on the pre-planted test seeds. In this test, the herbicides were Nos. 1 (MON-12000), 10 (ALLY®) and #4 (HARMONY®) and the Antidote Nos. 1, 7, 12 and 33.
These in-furrow treatments comprised a 50-50 mix of blended granules of COUNTER with and without 5G granular antidotes at 7.4 + 7.4 mg/cm or 1.1 + 0.37 mg active ingredient (a.i.)/cm. The in-furrow initiation of the test was followed five (5) days later with POE application of the herbicides; observations were made eight (8) days later. Table 38 […]

Giant foxtail (GIFT) = assay: Multi-crop greenhouse test, soil-applied (Examples 65, 66; Tables 64, 65); assay type: in vivo
How it was run: (§1)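 Injury to crops and weeds was rated after granular COUNTER 15G and acetone-delivered safeners were mixed into cover soil over seeded silt loam pans. MON-12000 followed POE 6 days after PPI, with injury read 10 days later. Two replicates.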

grain sorghum (GRSO) = assay: as above; assay type: in vivo
How it was run: as §1

RICE = assay: as above; assay type: in vivo
How it was run: as §1

Corn = assay: as above; assay type: in vivo
How it was run: as §1

cotton (COTT) = assay: Multi-crop greenhouse test, biocide, herbicide and safener applied to soil covers (Examples 65, 66; Tables 64, 65); assay type: in vivo
How it was run: as §1

[1] = Table 64, Herb. No. 1 0.018 Kg/Ha + Biocide No. 1 8.96 Kg/Ha + Antidote 4.48 Kg/Ha
[2] = Table 64, Herb. No. 1 0.07 Kg/Ha + Biocide No. 1 8.96 Kg/Ha + Antidote 4.48 Kg/Ha
[3] = Table 64, Herb. No. 1 0.28 Kg/Ha + Biocide No. 1 8.96 Kg/Ha + Antidote 4.48 Kg/Ha
[4] = Table 65, Herb. No. 1 0.018 Kg/Ha + Biocide No. 1 8.96 Kg/Ha + Antidote 4.48 Kg/Ha
[5] = Table 65, Herb. No. 1 0.07 Kg/Ha + Biocide No. 1 8.96 Kg/Ha + Antidote 4.48 Kg/Ha
[6] = Table 65, Herb. No. 1 0.28 Kg/Ha + Biocide No. 1 8.96 Kg/Ha + Antidote 4.48 Kg/Ha

SMILES: CC1(C)OC(c2ccco2)CN1C(=O)C(Cl)Cl (stereo not drawn) [compound 1]
- % Inhibition VELE (Velvetleaf (VELE); Antidote + Biocide No. 1 in furrow, Herbicide No. 1 0.14 Kg/Ha POE, 8 days after POE): 95%
- % Inhibition VELE (Velvetleaf (VELE); Antidote + Biocide No. 1 in furrow, Herbicide No. 4 0.17 Kg/Ha POE, 8 days after POE): 90%
- % Inhibition VELE (Velvetleaf (VELE); Antidote + Biocide No. 1 in furrow, Herbicide No. 5 0.07 Kg/Ha POE, 8 days after POE): 95%
- % Inhibition VELE (Velvetleaf (VELE); Antidote + Biocide No. 1 in furrow, Herbicide No. 6 0.01 Kg/Ha POE): 60%
- % Inhibition VELE (Velvetleaf (VELE); Antidote + Biocide No. 1 in furrow, Herbicide No. 7 0.56 Kg/Ha POE, 8 days after POE): 75%
- % Inhibition VELE (Velvetleaf (VELE); Antidote + Biocide No. 1 in furrow, Herbicide No. 9 0.009 Kg/Ha POE): 90%
- % Inhibition VELE (Velvetleaf (VELE); Antidote + Biocide No. 1 in furrow, Herbicide No. 10 0.002 Kg/Ha POE, 8 days after POE): 90%
- % Inhibition VELE (Velvetleaf (VELE); Antidote + Biocide No. 1 in furrow, Herbicide No. 15 0.0044 Kg/Ha POE, 8 days after POE): 75%
- % Inhibition VELE (Velvetleaf (VELE); Antidote + Biocide No. 1 in furrow, Herbicide No. 16 0.01 Kg/Ha POE): 35%
- % Inhibition VELE (Velvetleaf (VELE); Antidote + Biocide No. 1 in furrow, Herbicide No. 18 0.0044 Kg/Ha POE): 65%
- % Inhibition VELE (Velvetleaf (VELE); Antidote + Biocide No. 1 in furrow, Herbicide No. 19 0.28 Kg/Ha POE): 65%
- % Inhibition VELE (Velvetleaf (VELE); Antidote + Biocide No. 1 in furrow, Herbicide No. 21 0.14 Kg/Ha POE): 85%
- % Inhibition VELE (Velvetleaf (VELE); Antidote + Biocide No. 1 in furrow, Herbicide No. 23 0.0006 Kg/Ha POE): 60%
- % Inhibition VELE (Velvetleaf (VELE); Herbicide No. 1 0.14 Kg/Ha POE + Biocide No. 1 in furrow, no antidote, 8 days after POE): 90%
- % Inhibition VELE (Velvetleaf (VELE); Herbicide No. 1 0.14 Kg/Ha POE alone, 8 days after POE): 85%
- % Inhibition GIFT (Giant foxtail (GIFT); [1]): 50%
- % Inhibition GIFT (Giant foxtail (GIFT); [2]): 70%
- % Inhibition GIFT (Giant foxtail (GIFT); [3]): 85%
- % Inhibition GIFT (Giant foxtail (GIFT); [4]): 40%
- % Inhibition GIFT (Giant foxtail (GIFT); [5]): 80%
- % Inhibition GIFT (Giant foxtail (GIFT); [6]): 95%
- % Inhibition GRSO (grain sorghum (GRSO); [1]): 0%
- % Inhibition GRSO (grain sorghum (GRSO); [2]): 0%
- % Inhibition GRSO (grain sorghum (GRSO); [3]): 0%
- % Inhibition GRSO (grain sorghum (GRSO); [4]): 0%
- % Inhibition GRSO (grain sorghum (GRSO); [5]): 25%
- % Inhibition GRSO (grain sorghum (GRSO); [6]): 65%
- % Inhibition RICE (RICE; [1]): 0%
- % Inhibition RICE (RICE; [2]): 10%
- % Inhibition RICE (RICE; [3]): 25%
- % Inhibition RICE (RICE; [4]): 10%
- % Inhibition RICE (RICE; [5]): 25%
- % Inhibition RICE (RICE; [6]): 95%
- % Inhibition Corn (Corn; [1]): 5%
- % Inhibition Corn (Corn; [2]): 15%
- % Inhibition Corn (Corn; [3]): 10%
- % Inhibition Corn (Corn; [4]): 0%
- % Inhibition Corn (Corn; [5]): 5%
- % Inhibition Corn (Corn; [6]): 20%
- % Inhibition COTT (cotton (COTT); [1]): 20%
- % Inhibition COTT (cotton (COTT); [2]): 35%
- % Inhibition COTT (cotton (COTT); [3]): 35%
- % Inhibition COTT (cotton (COTT); [4]): 10%
- % Inhibition COTT (cotton (COTT); [5]): 20%
- % Inhibition COTT (cotton (COTT); [6]): 45%

Reference: patent EP0565593B1, “REDUCING PESTICIDAL INTERACTIONS IN CROPS” (priority 1990, dated 1992)
